Experimental findings from PMC11585924, “Direct measurements of neurosteroid binding to specific sites on GABAA receptors” (British journal of pharmacology, 2024) are described below.

pEC50: −log10 of the molar value. Values joined by “and” are separate entries in the source; they are usually repeats but may differ in a detail not shown here. Equal entries are not always repeated. “Also recorded” adds a separate entry of the source. Where two headings read alike, the source gives them in different places.

By Hill slope is commonly meant a measure of the steepness of the concentration-response curve. By pEC50 is commonly meant the EC50 on a negative log10 scale, so that one unit is a factor of ten.

The target in test [1] is T1, ELIC-α1GABAAR (Homo sapiens, UniProt P14867). In kind it is binding. The protocol:
One hundred microlitres of ELIC-α1GABAAR (0.3 μM) was transferred into a 50-μl window quartz cuvette maintained at 4°C, and NaI was added to the protein sample to a final concentration of 100 mM and incubated for 10 min. MQ290 was then added at a concentration of 3 μM for 3α-OH NS inhibition curves or 1 μM for 3β-OH NS inhibition curves and incubated for 30 min. One-microlitre aliquots of 3α-OH and 3β-OH NS from their corresponding stock solutions (prepared in Buffer A + 0.015% DDM) were added to achieve concentrations between 0.01 and 30 μM. The background emission spectra of ligands alone were obtained for each ligand concentration in the absence of protein and were subtracted from the protein-ligand emission spectra to yield background subtracted data. The MQ290 FRET spectra for different ligand concentrations were estimated using the method described above. The 370-nm intensities of the FRET spectra were plotted against ligand concentration and fitted to a four-parameter logistic curve to obtain IC50 data (GraphPad Software version 9.4.0, San Diego, CA). Ki values were calculated using the relationship: Ki=IC50/1+LT/Kd
where LT is the concentration of MQ290 and Kd was determined from the MQ290 binding curve.

Test [2] has as its target T1, ELIC-α1GABAAR. In kind it is binding. The protocol:
Excitation and emission spectra were obtained using a FluoroMax Plus-C fluorometer (Horiba Instruments, Tokyo, Japan). For obtaining emission spectra, 280 nm was used as the excitation wavelength and emission was recorded from 300 to 450 nm. The excitation and emission slit widths used for obtaining emission spectra were 1 and 5 nm. For protein-ligand binding experiments, three emission spectra were obtained and averaged after each addition of a ligand or sodium iodide (NaI). The averaged spectra were smoothed using the Savitzky–Golay method before analysis.
One hundred microlitres of purified ELIC-α1GABAAR (0.3 μM in Buffer A + 0.015% DDM) was transferred into a 50-μl window quartz cuvette (Starna Cells, Atascadero, CA, USA), which was placed in a cuvette holder maintained at 4°C. […] Two microlitres of NaI (AK Scientific, Union City, CA, USA; 5-M stock prepared in 0.1-Mm sodium hydrosulfite [Sigma-Aldrich, St. Louis, MO, USA]) was added to the protein (final concentration = 100 mM) and incubated for 10 min to reduce the fluorescence emission from hydrophilic tryptophans. To measure the concentration–dependent effects of NS on tryptophan fluorescence, 1 μl of NS from each 100× stock solution was sequentially added to the NaI-equilibrated protein and thoroughly mixed to achieve concentrations from 0.01 to 50 μM. […]
This is another data set of the same source.

Test [3] has as its system T2, α1^Q242Lβ3 GABAA receptors.
T2 construct: expressed in transfected cells; host or cells: Xenopus laevis oocytes, cRNA injected 5:1 (α1:β3)
The experiment in a line: Two-electrode voltage clamp, α1(Q242L) mutant receptors in Xenopus oocytes. The class given is cell-based, rat α1, human β3. To be noted: low GABA; α1(Q242L)β3. The protocol:
(§1) Receptor expression and electrophysiological recordings were conducted as described in detail previously ([Sugasawa et al., 2020]). In brief, α1β3 GABAA receptors were expressed in oocytes from the African clawed frog (X. laevis). The wild-type α1 and β3 subunits were of human origin (Genbank accession numbers NM_000806.5 and NM_000814.5, respectively). The α1 clone containing the Q-to-L mutation to the classic neurosteroid binding site ([Hosie et al., 2006]) was of rat origin. (The glutamine residue in ELIC-α1GABAAR is Q242, whereas the corresponding residue in rat α1 is Q241. For simplicity, the residue is referred to as Q242 for both rat and ELIC-α1GABAAR.) The oocytes were purchased as quarter ovaries from Xenopus1 (Dexter, MI, USA). Following digestion in 2% w/v (mg·ml^−1) collagenase A, the oocytes were injected with a total of 12 ng cRNA per oocyte in a 5:1 ratio (α1:β3) and incubated at 15°C for 2–3 days prior to electrophysiological recordings in ND96 (96-mM NaCl, 2-mM KCl, 1.8-mM CaCl2, 1-mM MgCl2, 5-mM HEPES; pH 7.4) supplemented with 100 U·ml^−1 penicillin and 100 μg·ml^−1 streptomycin.
(§2) Electrophysiological recordings were conducted at ≈22°C using standard two-electrode voltage clamp. The voltage and current electrodes (G120F-4, OD = 1.20 mm, ID = 0.69 mm; Warner Instruments, Hamden, CT, USA) were filled with 3-M KCl and had resistances of 0.3–1 MΩ. The oocytes were clamped at −60 mV. The chamber (RC-1Z; Warner Instruments) was perfused with ND96 at 5–8 ml·min^−1. Solutions were gravity-applied. The current responses were amplified with an Axoclamp 900A (Molecular Devices, San Jose, CA, USA) or OC-725C amplifier (Warner Instruments), digitized with a Digidata 1200 series digitizer (Molecular Devices) and stored on PC hard drive using pClamp (Molecular Devices; RRID:SCR_011323). Current amplitudes were determined using Clampfit (Molecular Devices).
A standard experiment consisted of a several-minute long applications of GABA followed immediately by a co-application of GABA + modulator and a wash in GABA. […]
For orientation: In two-electrode clamp one electrode senses voltage and the other passes current.

Test [4] deals with T3, α1β3 GABAA receptors (Homo sapiens, UniProt P14867+P28472).
T3 construct: expressed in transfected cells; host or cells: Xenopus laevis oocytes, cRNA injected 5:1 (α1:β3)
T3 sequence (P14867 28-456): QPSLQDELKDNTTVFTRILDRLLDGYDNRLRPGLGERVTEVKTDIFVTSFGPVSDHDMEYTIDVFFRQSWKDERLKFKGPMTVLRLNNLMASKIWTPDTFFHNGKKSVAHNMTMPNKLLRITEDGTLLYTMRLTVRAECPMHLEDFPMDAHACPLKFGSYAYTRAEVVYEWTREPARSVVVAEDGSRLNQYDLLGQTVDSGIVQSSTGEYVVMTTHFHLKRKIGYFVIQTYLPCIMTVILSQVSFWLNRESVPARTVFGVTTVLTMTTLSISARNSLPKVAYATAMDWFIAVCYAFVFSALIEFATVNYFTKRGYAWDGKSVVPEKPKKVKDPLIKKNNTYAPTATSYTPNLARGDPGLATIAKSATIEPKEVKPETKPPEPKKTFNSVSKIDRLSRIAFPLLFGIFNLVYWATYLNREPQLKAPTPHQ
T3 sequence (P28472 26-473): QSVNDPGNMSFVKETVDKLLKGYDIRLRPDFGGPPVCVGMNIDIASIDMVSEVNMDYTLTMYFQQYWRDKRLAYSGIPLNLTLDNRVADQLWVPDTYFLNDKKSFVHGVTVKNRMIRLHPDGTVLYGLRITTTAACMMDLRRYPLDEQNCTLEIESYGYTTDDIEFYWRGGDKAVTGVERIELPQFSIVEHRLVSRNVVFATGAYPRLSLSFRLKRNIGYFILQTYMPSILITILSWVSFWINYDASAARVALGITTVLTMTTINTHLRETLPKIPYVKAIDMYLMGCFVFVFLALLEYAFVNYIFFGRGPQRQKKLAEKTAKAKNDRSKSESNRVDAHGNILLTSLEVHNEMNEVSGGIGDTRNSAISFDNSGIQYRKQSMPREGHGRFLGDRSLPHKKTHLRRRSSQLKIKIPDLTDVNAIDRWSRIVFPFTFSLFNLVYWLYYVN
The experiment in a line: Two-electrode voltage clamp of GABA-elicited currents in Xenopus oocytes. The class given is cell-based. The note with it: for potentiation of GABA-elicited currents: low GABA, wild-type α1β3. The protocol: as §1, §2
A standard experiment consisted of a several-minute long applications of GABA followed immediately by a co-application of GABA + modulator and a wash in GABA. For normalization purposes, each cell was exposed to the combination of saturating (1-mM) GABA + 50-μM propofol, assumed to fully activate all receptors in the cell ([Eaton et al., 2016]).

The target in test [5] is ELIC-α1^W246LGABAAR (Homo sapiens, UniProt P14867, W273L). Briefly: MQ290 FRET in W246L receptors. The note with it: W246L vs WT. The class given is binding. The protocol: (§3) To monitor binding of MQ290 to ELIC-α1GABAAR, 100 μl of ELIC-α1GABAAR (0.3 μM) was transferred into a 50-μl window quartz cuvette that was placed in a cuvette holder. The temperature of the cuvette was maintained at 4°C. NaI (final concentration = 100 mM) was added to the protein sample and incubated for 10 min to reduce the emission of hydrophilic tryptophan residues. One-microlitre aliquots of 100× stock solutions of MQ290 (prepared in Buffer A + 0.015% DDM) were sequentially added to the protein sample and incubated for 30 min after each addition. Because MQ290 alone absorbs at 280 nm, emission spectrum (background spectrum) of MQ290 in the absence of protein was also obtained. The MQ290 background spectra were subtracted from the protein-MQ290 emission spectra to obtain the background-corrected spectra and were smoothened using the Savitzky–Golay method before analysis.
(§4) The ELIC-α1GABAAR emission spectrum obtained before the addition of MQ290 was used as the reference to estimate the contribution of ELIC-α1GABAAR tryptophan emission in the presence of MQ290. […] The calculated ELIC-α1GABAAR tryptophan emission spectrum was then subtracted from the background-corrected spectrum to obtain the emission spectrum of the signal resulting from energy transfer (FRET spectrum) from tryptophan to MQ290 (Figure S6). […]

The subject of test [6] is ELIC-α1^Q242LGABAAR. Briefly: MQ290 FRET in Q242L receptors. In kind it is binding, human. To be noted: Q242L vs WT. As for the experimental part:
as §3, §4

Test [7] has as its target T1, ELIC-α1GABAAR. The experiment in a line: KK200 photolabelling competition, middle-down MS. The class given is binding. The note with it: 3 μM KK200, 30 μM competitor. As for the experimental part:
The synthesis of the NS photolabelling reagent KK200 is detailed in previous reports ([W. W. L. Cheng et al., 2018]; [Jiang et al., 2016]). […] The samples were then irradiated in a quartz cuvette for 5 min, using a photoreactor emitting light at >320 nm ([Germann et al., 2021]). Sample preparation for tryptic digestion and analysis by LC–MS was performed as previously described ([Sugasawa et al., 2019]). Peptides were separated on a home-packed PLRP-S (Agilent, Santa Clara, CA, USA) column (10 cm × 75 μm, 300 Å) using a 135-min gradient from 10% to 90% acetonitrile and introduced to an Orbitrap-Elite mass spectrometer (Thermo Fisher Scientific, Waltham, MA, USA; RRID:SCR_020548) at 800 nl·min^−1 with a nanospray source. MS acquisition was set as an MS1 Orbitrap scan (resolution of 60,000) followed by top 20 MS2 Orbitrap scans (resolution of 15,000) using data-dependent acquisition and exclusion of singly charged precursors. Fragmentation was performed using high-energy dissociation with normalized energy of 35%. Analysis of data sets was performed using Xcalibur (Thermo Fisher Scientific, Waltham, MA, USA; RRID: SCR_014593) to manually search for TM1, TM2, TM3 or TM4 tryptic peptides with or without NS photolabelling modifications. Photolabelling efficiency was estimated by generating extracted chromatograms of unlabelled and labelled peptides, determining the area under the curve, and calculating the (area of labelled peptide/(area of unlabelled + area of labelled peptide). MS2 spectra of photolabelled TMD peptides were analysed by manual assignment of fragment ions with and without photolabelling modification.

T1 sequence (P14867 other isoform, or with tags, fused parts or gaps): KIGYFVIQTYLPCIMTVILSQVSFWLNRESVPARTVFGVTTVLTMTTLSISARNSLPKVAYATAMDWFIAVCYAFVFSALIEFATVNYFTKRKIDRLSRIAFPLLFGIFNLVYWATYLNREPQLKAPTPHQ
T1 sequence (P0C7B7 1-198, further chain): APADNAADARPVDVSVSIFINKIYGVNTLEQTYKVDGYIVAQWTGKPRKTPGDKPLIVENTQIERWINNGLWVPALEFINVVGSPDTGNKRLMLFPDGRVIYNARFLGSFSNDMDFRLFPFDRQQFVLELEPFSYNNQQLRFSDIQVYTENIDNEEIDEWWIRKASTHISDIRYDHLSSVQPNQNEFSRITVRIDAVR
ELIC-α1^W246LGABAAR, sequence (P14867 other isoform, or with tags, fused parts or gaps W273L): as the sequence (P14867 other isoform, or with tags, fused parts or gaps) above, with W25L counted along it
ELIC-α1^W246LGABAAR, sequence (P0C7B7 1-198, further chain): as the sequence (P0C7B7 1-198, further chain) above

With `CO[C@H]1CCC2C3CC[C@H]4C[C@H](O)CC[C@]4(C)C3CC[C@@]21C` (stereo partly drawn) [YX03], the Hill slope in test [1] (3α-OH NS, MQ290 3 μM) was −0.98 ± 0.37. The “prevention of AlloP induced quenching” value in test [2] is “partially prevents”. The “quenching of ELIC-α1GABAAR tryptophan fluorescence” value in test [2] (YX03 10 and 30 µM) is listed as “absent; also recorded: does not quench”. Also, the “potentiating effect with α1(Q242L) mutation” value (“potentiating effect” below) in test [3] is listed as “blocked”. The “potentiation of GABA-elicited currents” value in test [4] was “enhances; also recorded: potentiates”.

In the case of `CC(=O)[C@H]1CCC2C3CC[C@H]4C[C@@](C)(O)CC[C@]4(C)C3CC[C@@]21C` (stereo partly drawn) [Epi-GX, epi-ganaxolone], in test [1] (3β-OH NS, MQ290 1 μM), the Hill slope is listed as −0.67 ± 0.30. In test [4], the “potentiation of GABA-elicited currents” value was “do not”.

In turn, `CC(=O)[C@H]1CC[C@H]2[C@@H]3CC[C@H]4C[C@](C)(O)CC[C@]4(C)[C@H]3CC[C@]12C` [GX, ganaxolone] came in with a Hill slope in test [1] (3α-OH NS, MQ290 3 μM) of −1.57 ± 0.26.

For `CC(=O)[C@H]1CCC2C3CC[C@@H]4C[C@@H](O)CC[C@]4(C)C3CC[C@@]21C` (stereo partly drawn) [Epi-PREG, Epi-pregnanolone], the Hill slope in test [1] (3β-OH NS, MQ290 1 μM) was −0.77 ± 0.42. The “potentiating effect” value in test [3] is reported as “prevented”. In test [4], the “potentiation of GABA-elicited currents” value is recorded as “potentiates”.

Take `CO[C@H]1CCC2C3=CC=C4C[C@H](O)CC[C@]4(C)C3=CC[C@@]21C` (stereo partly drawn) [MQ290]: the “reduction of maximal MQ290 FRET signal in W246L receptors” value in test [5] was ~ 90% and 90%. Also, the “MQ290 FRET signal in Q242L mutants” value in test [6] is given as “significantly reduced”. Besides, in test [3], the “potentiating effect” value is “eliminated”. For the same molecule, the “prevention of KK200 photolabelling of TM3 (Y309)” value in test [7] was “significantly different than control; also recorded: prevented”. In addition, in test [4], the pEC50 was 5.00 to 6.00 and the “potentiation of GABA-elicited currents” value is given as “potentiates”.

Molecule `CC(=O)[C@H]1CC[C@H]2[C@@H]3CC[C@@H]4C[C@H](O)CC[C@]4(C)[C@H]3CC[C@]12C` [PREG, pregnanolone] had a Hill slope in test [1] (3α-OH NS, MQ290 3 μM) of −1.02 ± 0.35.
